Experimental data as given in patent US12594276B2, “Inhibitors of human immunodeficiency virus replication” (ViiV Healthcare UK (No.5) Limited, priority 2024, dated 2026).
pEC50: −log10 of the molar value. Like-named read-outs stand apart in the source and are kept apart here.

How the values were obtained:
[1] = test system: recombinant NL4-3 virus (nef section replaced with Renilla luciferase gene) in MT-2 cells; assay: HIV cell culture assay (antiviral activity, luciferase readout); assay type: cell-based; conditions: Renilla, NL43, MT-2 cells infected for 4-5 days with recombinant NL4-3 Renilla luciferase virus
Outline: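 Antiviral EC50 derived from luciferase signal using the exponential median effect equation. Infection of MT-2 cells ran 4-5 days alongside serial dilutions of compound, with virus generated by proviral clone transfection of 293T cells.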

[2] = Compound cytotoxicity, XTT-based colorimetric assay; assay type: cell-based; conditions: human
Outline: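 Follows the antiviral assay procedure, but with uninfected MT2 cells. On day 4, cell viability is measured by XTT-based colorimetry, giving CC50 values.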

[3] = uninfected MT2 cells, day 4, XTT, read-out: CC50

Structure (SMILES)	pEC50 [1]	CC50 at 4 days [2, 3] [nM]	CC50 at 4 days [2] [nM]
Cc1cc(C2(F)CCC(F)(F)CC2)nc2nc([C@H](Cc3cc(F)cc(F)c3)NC(=O)Cn3nc(C(F)F)c4c3C(F)(F)[C@@H]3C[C@H]43)n(-c3ccc(Cl)c4c(NS(C)(=O)=O)nn([C@H](C)C(=O)N5CC(C)(C)OC(C)(C)C5)c34)c(=O)c12 (atropisomer, axis not shown; (P)) [Example 749, N-[(1S)-1-[(3P)-3-{4-chloro-3-methanesulfonamido-1-[(2R)-1-oxo-1-(2,2,6,6-tetramethylmorpholin-4-yl)propan-2-yl]-1H-indazol-7-yl}-5-methyl-4-oxo-7-(1,4,4-trifluorocyclohexyl)-3H,4H-pyrido[2,3-d]pyrimidin-2-yl]-2-(3,5-difluorophenyl)ethyl]-2-[(2S,4R)-9-(difluoromethyl)-5,5-difluoro-7,8-diazatricyclo[4.3.0.0^2,^4]nona-1(6),8-dien-7-yl]acetamide]	10.74	> 20	–
CS(=O)(=O)Nc1nn(CCN2CCC(F)(F)C2)c2c(-n3c([C@H](Cc4cc(F)cc(F)c4)NC(=O)Cn4nc(C(F)F)c5c4C(F)(F)[C@@H]4C[C@H]54)nc4nc(C5CCC(F)(F)CC5)cc(C(F)F)c4c3=O)ccc(Cl)c12 (atropisomer, axis not shown; (P)) [Example 154, N-[(1S)-1-[(3P)-3-{4-chloro-1-[2-(3,3-difluoropyrrolidin-1-yl)ethyl]-3-methanesulfonamido-1H-indazol-7-yl}-7-(4,4-difluorocyclohexyl)-5-(difluoromethyl)-4-oxo-3H,4H-pyrido[2,3-d]pyrimidin-2-yl]-2-(3,5-difluorophenyl)ethyl]-2-[(2S,4R)-9-(difluoromethyl)-5,5-difluoro-7,8-diazatricyclo[4.3.0.0^2,^4]nona-1(6),8-dien-7-yl]acetamide]	10.72	> 50	–
CCc1cc(C2CCC(F)(F)CC2)nc2nc([C@H](Cc3cc(F)cc(F)c3)NC(=O)Cn3nc(C(F)F)c4c3C[C@H]3C[C@@H]43)n(-c3ccc(Cl)c4c(NS(C)(=O)=O)nn(CCCOC)c34)c(=O)c12 (relative stereo) [Example 643, N-[(1S)-1-[(3P)-3-[4-chloro-3-methanesulfonamido-1-(3-methoxypropyl)-1H-indazol-7-yl]-7-(4,4-difluorocyclohexyl)-5-ethyl-4-oxo-3H,4H-pyrido[2,3-d]pyrimidin-2-yl]-2-(3,5-difluorophenyl)ethyl]-2-[(2R*,4R*)-9-(difluoromethyl)-7,8-diazatricyclo[4.3.0.0^2,^4]nona-1(6),8-dien-7-yl]acetamide]	10.77	> 50	–
Cc1cc(C2CCC(F)(F)CC2)nc2nc([C@H](Cc3cc(F)cc(F)c3)NC(=O)Cn3nc(C(F)F)c4c3C(F)(F)[C@@H]3C[C@H]43)n(-c3ccc(Cl)c4c(NS(C)(=O)=O)nn(CCOCC(F)(F)F)c34)c(=O)c12 (atropisomer, axis not shown; (P)) [Example 72, N-[(1S)-1-[(3P)-3-{4-chloro-3-methanesulfonamido-1-[2-(2,2,2-trifluoroethoxy)ethyl]-1H-indazol-7-yl}-7-(4,4-difluorocyclohexyl)-5-methyl-4-oxo-3H,4H-pyrido[2,3-d]pyrimidin-2-yl]-2-(3,5-difluorophenyl)ethyl]-2-[(2S,4R)-9-(difluoromethyl)-5,5-difluoro-7,8-diazatricyclo[4.3.0.0^2,^4]nona-1(6),8-dien-7-yl]acetamide]	10.54	> 50	–
COCCNc1cc(C2CCC(F)(F)CC2)nc2nc([C@H](Cc3cc(F)cc(F)c3)NC(=O)Cn3nc(C(F)F)c4c3C(F)(F)[C@@H]3C[C@H]43)n(-c3ccc(Cl)c4c(NS(C)(=O)=O)nn(CCN5CCC(F)(F)CC5)c34)c(=O)c12 (atropisomer, axis not shown; (P)) [Example 413, N-[(1S)-1-[(3P)-3-{4-chloro-1-[2-(4,4-difluoropiperidin-1-yl)ethyl]-3-methanesulfonamido-1H-indazol-7-yl}-7-(4,4-difluorocyclohexyl)-5-[(2-methoxyethyl)amino]-4-oxo-3H,4H-pyrido[2,3-d]pyrimidin-2-yl]-2-(3,5-difluorophenyl)ethyl]-2-[(2S,4R)-9-(difluoromethyl)-5,5-difluoro-7,8-diazatricyclo[4.3.0.0^2,^4]nona-1(6),8-dien-7-yl]acetamide]	10.89	> 20	–
Cc1cc(C2CCC(F)(F)CC2)nc2nc([C@H](Cc3cc(F)cc(F)c3)NC(=O)Cn3nc(C4CC4)c4c3C[C@@H]3C[C@H]43)n(-c3ccc(Cl)c4c(NS(C)(=O)=O)nn(CCN5[C@@H]6CC[C@H]5COC6)c34)c(=O)c12 (atropisomer, axis not shown; (P)) [Example 6, N-[(1S)-1-[(3P)-3-(4-chloro-3-methanesulfonamido-1-{2-[(1R,5S)-3-oxa-8-azabicyclo[3.2.1]octan-8-yl]ethyl}-1H-indazol-7-yl)-7-(4,4-difluorocyclohexyl)-5-methyl-4-oxo-3H,4H-pyrido[2,3-d]pyrimidin-2-yl]-2-(3,5-difluorophenyl)ethyl]-2-[(2S,4S)-9-cyclopropyl-7,8-diazatricyclo[4.3.0.0^2,^4]nona-1(6),8-dien-7-yl]acetamide]	11.22	–	> 50
COCCCn1nc(NS(C)(=O)=O)c2c(Cl)ccc(-n3c([C@H](Cc4cc(F)cc(F)c4)NC(=O)Cn4nc(C(F)F)c5c4C(F)(F)[C@@H]4C[C@H]54)nc4nc(C5CCC(F)(F)CC5)cc(CN5C[C@@H](F)[C@@H](F)C5)c4c3=O)c21 (atropisomer, axis not shown; (P)) [Example 530, N-[(1S)-1-[(3P)-3-[4-chloro-3-methanesulfonamido-1-(3-methoxypropyl)-1H-indazol-7-yl]-7-(4,4-difluorocyclohexyl)-5-{[(3R,4S)-3,4-difluoropyrrolidin-1-yl]methyl}-4-oxo-3H,4H-pyrido[2,3-d]pyrimidin-2-yl]-2-(3,5-difluorophenyl)ethyl]-2-[(2S,4R)-9-(difluoromethyl)-5,5-difluoro-7,8-diazatricyclo[4.3.0.0^2,^4]nona-1(6),8-dien-7-yl]acetamide]	11.10	> 20	–
Cc1cc(C2(F)CCC(F)(F)CC2)nc2nc([C@H](Cc3cc(F)cc(F)c3)NC(=O)Cn3nc(C(F)(F)F)c4c3C(F)(F)[C@@H]3C[C@H]43)n(-c3ccc(Cl)c4c(NS(C)(=O)=O)nn(CCN5C[C@@H](C)O[C@@H](C)C5)c34)c(=O)c12 (atropisomer, axis not shown; (P)) [Example 594, N-[(1S)-1-[(3P)-3-(4-chloro-1-{2-[(2R,6S)-2,6-dimethylmorpholin-4-yl]ethyl}-3-methanesulfonamido-1H-indazol-7-yl)-5-methyl-4-oxo-7-(1,4,4-trifluorocyclohexyl)-3H,4H-pyrido[2,3-d]pyrimidin-2-yl]-2-(3,5-difluorophenyl)ethyl]-2-[(2S,4R)-5,5-difluoro-9-(trifluoromethyl)-7,8-diazatricyclo[4.3.0.0^2,^4]nona-1(6),8-dien-7-yl]acetamide]	10.96	> 20	–
Cc1cc(C2CCC(F)(F)CC2)nc2nc([C@H](Cc3cc(F)cc(F)c3)NC(=O)Cn3nc(C4CC4)c4c3C[C@@H]3C[C@H]43)n(-c3ccc(Cl)c4c(NS(C)(=O)=O)nn(C[C@H](C)N5CC(C)(C)OC(C)(C)C5)c34)c(=O)c12 (relative stereo) [Example 714, N-[(1S)-1-[(3P)-3-{4-chloro-3-methanesulfonamido-1-[(2S)-2-(2,2,6,6-tetramethylmorpholin-4-yl)propyl]-1H-indazol-7-yl}-7-(4,4-difluorocyclohexyl)-5-methyl-4-oxo-3H,4H-pyrido[2,3-d]pyrimidin-2-yl]-2-(3,5-difluorophenyl)ethyl]-2-[(2R*,4R*)-9-cyclopropyl-7,8-diazatricyclo[4.3.0.0^2,4]nona-1(6),8-dien-7-yl]acetamide]	10.62	> 20	–
Cc1cc(C2(F)CCC(F)(F)CC2)nc2nc([C@H](Cc3cc(F)cc(F)c3)NC(=O)Cn3nc(C4CC4)c4c3C[C@@H]3C[C@H]43)n(-c3ccc(Cl)c4c(NS(C)(=O)=O)nn(CCN5CC6CC(C5)O6)c34)c(=O)c12 [Example 591, N-[(1S)-1-[(3P)-3-[4-chloro-3-methanesulfonamido-1-(2-{6-oxa-3-azabicyclo[3.1.1]heptan-3-yl}ethyl)-1H-indazol-7-yl]-5-methyl-4-oxo-7-(1,4,4-trifluorocyclohexyl)-3H,4H-pyrido[2,3-d]pyrimidin-2-yl]-2-(3,5-difluorophenyl)ethyl]-2-[(2S,4S)-9-cyclopropyl-7,8-diazatricyclo[4.3.0.0^2,^4]nona-1(6),8-dien-7-yl]acetamide]	11.22	–	> 20
Cc1cc(C2(F)CCC(F)(F)CC2)nc2nc([C@H](Cc3cc(F)cc(F)c3)NC(=O)Cn3nc(C(F)(F)F)c4c3C[C@@H]3C[C@H]43)n(-c3ccc(Cl)c4c(NS(C)(=O)=O)nn(CCN5C[C@@H](C)O[C@@H](C)C5)c34)c(=O)c12 (atropisomer, axis not shown; (P)) [Example 597, N-[(1S)-1-[(3P)-3-(4-chloro-1-{2-[(2R,6S)-2,6-dimethylmorpholin-4-yl]ethyl}-3-methanesulfonamido-1H-indazol-7-yl)-5-methyl-4-oxo-7-(1,4,4-trifluorocyclohexyl)-3H,4H-pyrido[2,3-d]pyrimidin-2-yl]-2-(3,5-difluorophenyl)ethyl]-2-[(2S,4S)-9-(trifluoromethyl)-7,8-diazatricyclo[4.3.0.0^2,^4]nona-1(6),8-dien-7-yl]acetamide]	10.68	> 20	–
